Laboratory results from patent US10426815B2, “Prevention and treatment of itch with an MRGPR antagonist” (THE GENERAL HOSPITAL CORPORATION, priority 2015, dated 2019).
“Also recorded” adds a separate entry of the source.

Key:
MrgA1 (mouse MrgprA1) = target: T1, MrgA1 (mouse MrgprA1) (Mus musculus, UniProt Q91WW5); experiment: Calcium imaging of cells transfected with the GPCR (Table 1); assay type: cell-based; details: for inhibition of SP-induced activation of mouse MrgprA1: FIG. 6a: SP 5 μM, inhibitors 10 μM, FK888 10 μM; for activation of mouse MrgprA1 by the substance (in words): NPFF 50 μM, SP at nanomolar concentrations
T1 construct: host or cells: HeLa cells
T1 sequence (Q91WW5 1-304): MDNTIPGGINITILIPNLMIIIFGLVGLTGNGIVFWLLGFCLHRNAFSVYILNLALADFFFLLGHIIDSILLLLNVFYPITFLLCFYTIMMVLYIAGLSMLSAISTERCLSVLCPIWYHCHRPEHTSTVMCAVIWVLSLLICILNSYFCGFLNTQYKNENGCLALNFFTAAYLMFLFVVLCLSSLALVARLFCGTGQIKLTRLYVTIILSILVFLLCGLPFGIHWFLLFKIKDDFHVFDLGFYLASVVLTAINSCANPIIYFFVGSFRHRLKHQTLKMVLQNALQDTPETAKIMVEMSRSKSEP
Method: human MRGPRX2 was isolated by PCR from human genomic DNA using the forward and reverse primers, […] (SEQ. ID. NO: 3) and […] (SEQ. ID. NO: 4), and cloned into pcDNA3.1(−). The mouse MrgprA1 cDNA expression clone was purchased from ORIGENE Technologies. The mouse MrgprB2 coding sequences were PCR-amplified from mouse genomic DNA using the primer pair, […] (SEQ. ID. NO: 5) and […] (SEQ. ID. NO: 6), and cloned into pcDNA3.1 (−).
10 μg of expression vector (human MRGPRX2, mouse MrgprA1 or NK1) and 10 μl of LIPOFECTAMINE 2000 transfection reagent were diluted into 0.5 ml of DMEM and separately left at room temperature (RT) for 5 min. They were then mixed and incubated at RT for 20 minutes prior to being added to HeLa cells. HeLa cells were grown to confluence, trypsinized and 1×10^6 cells were pelleted in a 15 ml tube by centrifugation at 1000 rpm for 5 minutes. The DMEM-LIPOFECTAMINE 2000-DNA mixture (1 ml) was then added to the cell pellet, suspended and incubated at RT for 5 minutes. 2 ml of complete DMEM with 10% FBS without antibiotics were added to the tube, mixed by inverting the tube, plated into a 96-well glass bottom plate at 50,000 cells/well, and placed in a 37° C. CO2 incubator for 3 hours. HeLa cells transfected with salmon sperm DNA were plated as a control. The medium was changed after 3 hours and left in the incubator. 24 hours after transfection, the medium in the wells was removed and 100 μl of complete DMEM containing 2 μM of FURA-2 were added to each well and left at room temperature in the dark for 1 hr. Following loading with FURA-2, the medium was removed, washed with PBS and replaced with 90 μl of HEPES-buffered saline (20 mM HEPES, 115 mM NaCl, 5.4 mM KCl, 2 mM CaCl2, 0.8 mM MgCl2, 13.8 mM glucose, pH 7.4).
Calcium imaging was performed immediately after loading cells with Fura-2, using a ZEISS Axiovert 200M microscope platform equipped with a flipping filter wheel for ratiometric imaging. Axiovision software, version 4.6 was used for calcium image analysis of the cells excited at 340 nm and 380 nm. Agonists were added at 15 seconds after the start of the excitation procedure. Antagonists were added five minutes before imaging with the agonists. Images were taken every 5 seconds, including at zero time, during a 90 second period or longer if required. The software later analyzed all images taken during each excitation period. Ratiometric changes were measured in 10-20 cells in each individual experiment. An average of the fluorescence of the cells in each image was calculated and plotted against time in seconds.
HeLa cells transfected with human MRGPRX2, mouse MrgprA1 and NK1 cDNAs were subjected to ratiometric imaging as described above with SP at concentrations from 0.1 nM-50 μM. Each of the concentration dependent readings was performed in triplicate. Maximum intensities at each of the dilutions were calculated and plotted against concentration using GraphPad Prism software. Error bars represent SEM.
The top row lists ligands that have been tested versus the various receptors, both in the absence and presence of QWF.

PAR2 = target: T2, PAR2 (Homo sapiens, UniProt P55085); experiment: as above; assay type: cell-based
T2 construct: expressed in transfected cells; host or cells: HeLa cells by analogy with the other receptors
T2 sequence (P55085 26-397): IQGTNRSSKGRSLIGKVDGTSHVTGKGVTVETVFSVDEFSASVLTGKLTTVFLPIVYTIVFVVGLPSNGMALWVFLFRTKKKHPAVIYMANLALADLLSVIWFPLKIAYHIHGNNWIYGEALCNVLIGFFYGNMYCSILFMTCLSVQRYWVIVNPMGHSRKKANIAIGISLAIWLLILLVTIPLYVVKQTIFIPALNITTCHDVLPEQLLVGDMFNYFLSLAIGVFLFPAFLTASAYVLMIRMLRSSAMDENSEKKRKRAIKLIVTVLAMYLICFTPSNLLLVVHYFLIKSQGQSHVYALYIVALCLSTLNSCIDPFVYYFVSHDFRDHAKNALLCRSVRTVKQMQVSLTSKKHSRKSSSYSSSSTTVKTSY

Row | inhibition of SP-induced activation of mouse MrgprA1 (MrgA1 (mouse MrgprA1)) | Compound | activation of mouse MrgprA1 by the substance (in words) (MrgA1 (mouse MrgprA1)) | further results
1 | did not impact | FC(F)(F)c1cc(CO[C@H]2CCCN[C@H]2c2ccccc2)cc(C(F)(F)F)c1 [L-733060] | – | inhibition of SP-induced activation of mouse MrgprA1 (MrgA1 (mouse MrgprA1); listed as L733060): not
2 | did not impact and not | C[C@@H](O[C@H]1OCCN(Cc2n[nH]c(=O)[nH]2)[C@H]1c1ccc(F)cc1)c1cc(C(F)(F)F)cc(C(F)(F)F)c1 [aprepitant] | – | –
3 | – | SLIGRL: tethered hexapeptide ligand of mouse PAR2 (SEQ ID NO: 7) | activates | activation of PAR2 by the substance (in words) (PAR2): activates
4 | – | SP: inflammatory undecapeptide neuropeptide of the tachykinin family, synthesized by GenScript | activates; also recorded: specifically activated | –

Row | Compound | inhibition of SP-induced activation of mouse MrgprA1 (MrgA1 (mouse MrgprA1)) | activation of mouse MrgprA1 by the substance (in words) (MrgA1 (mouse MrgprA1)) | further results
5 | Boc-Gln-D-Trp(Formyl)-Phe benzyl ester trifluoroacetate [QWF] | excellent inhibitor; also recorded: potent antagonist; also recorded: inhibits; also recorded: blocks | – | inhibition of PAR2 activation by 48/80 (PAR2): antagonizes; inhibition of PAR2 activation by SLIGRL (PAR2): not; inhibition of mMrgprA1 activation by compound 48/80 (MrgA1 (mouse MrgprA1)): inhibits
